From patent EP3909646A1 (priority 2020, dated 2021)
“Also recorded” adds a separate entry of the source.

What was measured:
ACE2 = format: cell-based, human
SARS-CoV-2 = format: cell-based
primary NHBE [1] = format: cell-based, human
TMPRSS2 = format: cell-based, human; details: Fig.4E
primary NHBE [2] = details: uninfected primary NHBE, different doses titrated, Fig.1C

| Compound | ACE2 gene expression (microarray, confirmed by qPCR) (ACE2) | ACE2 gene expression (qPCR) (ACE2) | virus titers / infectious viral particles in supernatant (plaque forming units) (SARS-CoV-2) | genes that may support the cytokine storm (gene expression) (primary NHBE [1]) | type I interferons IFNB1 and IFNE and type III interferons such as IFNL3 (gene expression) (primary NHBE [1]) | APOBEC3A gene expression (primary NHBE [1]; Fig.4A) | known and potential virus entry receptors (gene expression) (primary NHBE [1]; Fig.4C) | genes upregulated by SARS-CoV-2-infection, but downregulated by drug (primary NHBE [1]; Venn diagram, Fig.3E) [genes] | genes reduced by SARS-CoV-2-infection, but increased by drug (primary NHBE [1]; Venn diagram, Fig.7C) [genes] | global gene expression changes (primary NHBE [1]; icatibant 1 µM or hydrocortisone 10 µM, volcano plots, Fig.3D) | antiviral epithelial response (gene expression) (primary NHBE [1]; in general, Fig.4A) | antiviral response genes significantly downregulated (primary NHBE [1]; over all conditions, Fig.8A) | transcripts regulated by both, hydrocortisone and icatibant (primary NHBE [1]; overlap of the two drugs, majority long non-coding RNAs, Fig.3E) [transcripts] | TMPRSS2 gene expression (microarray, confirmed by qPCR) (TMPRSS2; 10 µM hydrocortisone, uninfected cells) | TMPRSS2 gene expression (qPCR) (TMPRSS2; 24h pre-treatment 10 µM hydrocortisone, uninfected and virus-infected NHBE, with or without IFN-γ) | potential cytotoxicity (LDH) (primary NHBE [2]) | infection-mediated cytotoxicity (LDH), rescue (SARS-CoV-2 infected NHBE; 1 µM icatibant added 6h post-inoculation, Fig.5F) | infection-mediated cytotoxicity (LDH) (SARS-CoV-2 infected NHBE; 24h pre-treatment 1 µM icatibant, then 24h SARS-CoV-2 inoculation, n=12, Fig.5E) |
| --- | --- | --- | --- | --- | --- | --- | --- | --- | --- | --- | --- | --- | --- | --- | --- | --- | --- | --- |
| C[C@]12CCC(=O)C=C1CC[C@@H]1[C@@H]2[C@@H](O)C[C@@]2(C)[C@H]1CC[C@]2(O)C(=O)CO [hydrocortisone] | upregulation of ACE2 and TMPRSS2 on the transcriptional level of uninfected cells | did not change | no adverse effect on the virus titers; also recorded: did not reduce virus titers | not significantly influenced | even slightly enhanced | even increased | rather enhances receptors, like TMPRSS2, 11B and 11E proteins | 300 | 198 | almost balanced relationship between suppression and induction of gene expression | changes of the antiviral epithelial response were not induced | significantly reduced DNAJC3, CREBZF, GPAM, BNIP3L and FAM111A | 86 | upregulation of ACE2 and TMPRSS2 on the transcriptional level of uninfected cells | still enhanced TMPRSS2 expression in both, uninfected and virus-infected NHBE | – | – | – |
| NC(N)=NCCC[C@@H](N)C(=O)N[C@@H](CCCN=C(N)N)C(=O)N1CCC[C@H]1C(=O)N1C[C@H](O)C[C@H]1C(=O)NCC(=O)N[C@@H](Cc1cccs1)C(=O)N[C@@H](CO)C(=O)N1Cc2ccccc2C[C@@H]1C(=O)N1[C@H](C(=O)N[C@@H](CCCN=C(N)N)C(=O)O)C[C@@H]2CCCC[C@@H]21 [icatibant] | – | – | – | – | – | – | – | – | – | – | – | – | – | – | – | no toxic effects in NHBE cell cultures, but even exhibits a cell-protecting effect | significantly reduced | significantly reduced |
